Columns and labels:
[1] = molecular target: Neuronal acetylcholine receptor; alpha2/beta4 (Homo sapiens, UniProt P30926+Q15822); assay: Binding affinity against nicotinic acetylcholine receptor alpha2-beta4 using [3H]epibatidine as radioligand expressed in HEK293 cells or tsA cells; assay type: cell-based
[2] = molecular target: T1, Neuronal acetylcholine receptor; alpha3/beta4 (Homo sapiens, UniProt P30926+P32297); assay: Agonistic potency against nicotinic acetylcholine receptor alpha3-beta4; assay type: functional
T1 sequence (P30926 whole entry): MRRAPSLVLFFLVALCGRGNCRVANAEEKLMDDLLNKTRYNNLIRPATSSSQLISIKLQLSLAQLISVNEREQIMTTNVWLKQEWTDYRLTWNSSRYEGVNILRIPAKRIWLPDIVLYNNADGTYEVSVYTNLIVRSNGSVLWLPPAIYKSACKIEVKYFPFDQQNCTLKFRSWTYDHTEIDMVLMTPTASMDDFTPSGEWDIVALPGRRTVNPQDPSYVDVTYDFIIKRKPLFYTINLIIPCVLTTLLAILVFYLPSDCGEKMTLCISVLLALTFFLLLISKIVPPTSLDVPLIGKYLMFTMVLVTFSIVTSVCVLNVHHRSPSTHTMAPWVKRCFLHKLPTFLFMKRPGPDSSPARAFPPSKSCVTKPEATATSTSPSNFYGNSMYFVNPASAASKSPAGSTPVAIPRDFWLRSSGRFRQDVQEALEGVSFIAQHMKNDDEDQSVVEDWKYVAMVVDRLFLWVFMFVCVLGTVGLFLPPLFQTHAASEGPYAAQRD
T1 sequence (P32297 whole entry): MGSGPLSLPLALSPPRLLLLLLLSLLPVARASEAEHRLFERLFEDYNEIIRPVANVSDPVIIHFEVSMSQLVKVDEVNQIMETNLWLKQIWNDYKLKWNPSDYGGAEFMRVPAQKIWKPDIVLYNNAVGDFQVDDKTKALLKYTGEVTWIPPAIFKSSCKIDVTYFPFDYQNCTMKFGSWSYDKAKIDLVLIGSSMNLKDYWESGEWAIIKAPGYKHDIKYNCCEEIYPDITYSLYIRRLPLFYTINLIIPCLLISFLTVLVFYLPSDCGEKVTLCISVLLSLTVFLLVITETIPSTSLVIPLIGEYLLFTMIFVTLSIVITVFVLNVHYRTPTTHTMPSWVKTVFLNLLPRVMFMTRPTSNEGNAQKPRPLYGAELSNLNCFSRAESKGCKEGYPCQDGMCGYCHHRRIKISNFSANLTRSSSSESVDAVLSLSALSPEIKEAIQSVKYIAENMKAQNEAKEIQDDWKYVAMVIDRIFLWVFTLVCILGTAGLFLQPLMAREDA

[3] = molecular target: Neuronal acetylcholine receptor; assay: Binding affinity against nicotinic acetylcholine receptor using [3H]epibatidine as radioligand in rat brain tissue; assay type: tissue-based
[4] = molecular target: Neuronal acetylcholine receptor; alpha4/beta4 (Homo sapiens, UniProt P30926+P43681); assay: Binding affinity against nicotinic acetylcholine receptor alpha4-beta4 using [3H]epibatidine as radioligand expressed in HEK293 cells or tsA cells; assay type: cell-based
Sequence of Neuronal acetylcholine receptor; alpha4/beta4 (P30926 whole entry): as the sequence (P30926 whole entry) above
Sequence of Neuronal acetylcholine receptor; alpha4/beta4 (P43681 whole entry): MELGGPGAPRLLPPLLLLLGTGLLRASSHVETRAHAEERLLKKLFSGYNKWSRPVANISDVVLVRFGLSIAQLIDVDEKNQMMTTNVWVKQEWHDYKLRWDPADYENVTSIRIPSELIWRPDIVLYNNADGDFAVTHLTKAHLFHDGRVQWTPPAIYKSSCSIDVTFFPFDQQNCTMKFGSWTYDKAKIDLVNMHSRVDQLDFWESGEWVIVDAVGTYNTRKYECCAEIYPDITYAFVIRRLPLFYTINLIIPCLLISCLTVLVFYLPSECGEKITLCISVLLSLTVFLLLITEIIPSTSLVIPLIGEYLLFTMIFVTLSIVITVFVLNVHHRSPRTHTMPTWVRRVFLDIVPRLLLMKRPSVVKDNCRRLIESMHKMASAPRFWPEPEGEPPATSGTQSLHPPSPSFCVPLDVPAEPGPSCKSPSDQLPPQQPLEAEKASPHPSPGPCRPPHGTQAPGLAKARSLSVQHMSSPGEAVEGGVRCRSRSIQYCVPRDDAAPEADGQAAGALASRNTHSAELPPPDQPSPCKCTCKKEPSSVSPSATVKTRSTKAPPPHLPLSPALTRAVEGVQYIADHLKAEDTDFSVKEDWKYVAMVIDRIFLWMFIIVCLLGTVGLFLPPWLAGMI

[5] = molecular target: T1, Neuronal acetylcholine receptor; alpha3/beta4; assay: Binding affinity against nicotinic acetylcholine receptor alpha3-beta4 using [3H]epibatidine as radioligand expressed in HEK293 cells or tsA cells; assay type: cell-based
[6] = molecular target: Neuronal acetylcholine receptor; alpha4/beta2 (Homo sapiens, UniProt P17787+P43681); assay: Binding affinity against nicotinic acetylcholine receptor alpha4-beta2 using [3H]epibatidine as radioligand expressed in HEK293 cells or tsA cells; assay type: cell-based
Sequence of Neuronal acetylcholine receptor; alpha4/beta2 (P17787 whole entry): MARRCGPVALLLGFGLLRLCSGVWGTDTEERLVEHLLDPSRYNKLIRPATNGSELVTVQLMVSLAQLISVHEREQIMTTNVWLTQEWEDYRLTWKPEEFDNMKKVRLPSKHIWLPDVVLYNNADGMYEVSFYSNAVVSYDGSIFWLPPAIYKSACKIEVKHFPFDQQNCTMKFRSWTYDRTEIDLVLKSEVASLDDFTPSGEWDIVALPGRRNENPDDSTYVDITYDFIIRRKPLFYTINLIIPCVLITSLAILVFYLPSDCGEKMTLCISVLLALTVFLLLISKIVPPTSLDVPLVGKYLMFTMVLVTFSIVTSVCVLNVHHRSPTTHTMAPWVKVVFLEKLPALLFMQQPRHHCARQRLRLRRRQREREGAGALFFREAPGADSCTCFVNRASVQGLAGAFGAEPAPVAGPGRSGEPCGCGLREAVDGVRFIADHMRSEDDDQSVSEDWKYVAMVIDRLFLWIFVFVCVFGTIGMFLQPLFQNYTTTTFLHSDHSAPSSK
Sequence of Neuronal acetylcholine receptor; alpha4/beta2 (P43681 whole entry): as the sequence (P43681 whole entry) above

Sequence of Neuronal acetylcholine receptor; alpha2/beta4 (P30926 whole entry): as the sequence (P30926 whole entry) above
Sequence of Neuronal acetylcholine receptor; alpha2/beta4 (Q15822 whole entry): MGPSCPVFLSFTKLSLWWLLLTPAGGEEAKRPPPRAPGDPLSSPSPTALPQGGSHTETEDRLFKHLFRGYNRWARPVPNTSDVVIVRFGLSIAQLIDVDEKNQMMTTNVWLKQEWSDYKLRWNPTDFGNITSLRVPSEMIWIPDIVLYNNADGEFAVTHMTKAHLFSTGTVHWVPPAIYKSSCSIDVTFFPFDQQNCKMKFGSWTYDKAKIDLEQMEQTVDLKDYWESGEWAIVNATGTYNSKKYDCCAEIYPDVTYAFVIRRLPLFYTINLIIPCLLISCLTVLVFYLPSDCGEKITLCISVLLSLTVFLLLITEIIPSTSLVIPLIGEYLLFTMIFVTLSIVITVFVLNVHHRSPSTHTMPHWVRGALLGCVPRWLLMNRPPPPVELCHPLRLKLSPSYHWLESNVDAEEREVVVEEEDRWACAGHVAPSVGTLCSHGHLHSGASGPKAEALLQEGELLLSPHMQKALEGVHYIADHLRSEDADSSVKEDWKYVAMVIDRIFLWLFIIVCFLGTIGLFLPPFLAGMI

Row | SMILES | Ki [1] | EC50 [2] | Ki [3] | Ki [4] | Ki [5] | Ki [6]
1 | OC1CC2CC(c3ccc(Cl)nc3)C(C1)N2 (stereo not drawn) | 31 nM | 2100 nM | 18 nM | 38 nM | 88 nM | 7.4 nM
2 | Clc1ccc(C2CC3CCC2N3)cn1 (stereo not drawn) [EPIBATIDINE] | 0.091 nM |  |  |  |  | 
3 | CN1CCC[C@H]1c1cccnc1 [NICOTINE] | 103 nM |  |  |  |  | 

Source: ChEMBL document CHEMBL1146702, “Synthesis and nicotinic receptor activity of a hydroxylated tropane” (Bioorg Med Chem Lett, 2004)
